These results are taken from patent US5057521A, “Use of bicyclic imidazole compounds for the treatment of hyperaldosteronism” (Ciba-Geigy Corporation, priority 1988, dated 1991).

This assay deals with adrenocortical cells prepared from an adrenoma of a patient suffering from Conn's syndrome. The assay is described as follows: cells. Particulars: Homo sapiens, read-out: concentration effecting maximum inhibition of aldosterone secretion stimulated by angiotensin II.

On to `N#Cc1ccc(C2CCCc3cncn32)cc1` (racemic) [5-(p-cyanophenyl)-5,6,7,8-tetrahydroimidazo[1,5-a]pyridine], for which the IC (maximum) stood at 0.1 µM.
